{"source": "patent US4414388A", "about": "“1-Oxo-1H-thiazolo[3,2-a]pyrimidine-2-carboxamides” (Pfizer Inc., priority 1981, dated 1983)", "key": {"[1]": {"system": "passive systemic anaphylaxis", "test": "passive systemic anaphylaxis (rise in plasma histamine on antigen challenge)", "format": "in vivo, rat"}, "blood glucose": {"system": "blood glucose", "test": "blood glucose levels in fasted rats", "format": "in vivo, rat", "details": "oral, 10, 30 or 100 mg/kg; fasted 24 hours"}, "[2]": {"test": "acute subcutaneous toleration in mice", "details": "mouse, in vivo, sc; subcutaneous, mice", "procedure": "(§1) Compound III was administered subcutaneously to mice at doses of 100, 300 or 1000 mg/kg."}, "mice": {"system": "mice", "test": "acute subcutaneous toleration in mice", "details": "mouse, in vivo", "procedure": "as §1"}, "bone marrow": {"system": "bone marrow", "test": "chromosomal damage in bone marrow of mice", "format": "in vivo, mouse", "details": "single oral dose 40 mg/kg; 6, 12 or 24 hours", "procedure": "Single oral doses of III, 40 mg/kg, were administered to groups of mice who were sacrificed 6, 12 or 24 hours later. […] From these findings, it is evident that III has no obvious mutagenic potential."}, "human lymphocytes": {"system": "human lymphocytes", "test": "chromosomal breakage in human lymphocytes in vitro", "format": "cell-based", "details": "1000, 100, 10 or 0 μg/ml"}}, "data": [{"smiles": "O=C(Nc1nnn[nH]1)c1cnc2sc3c(n2c1=O)CCCC3", "note": "[compound III, N-(5-tetrazolyl)-1-oxo-1H-cyclohexenothiazolo[3,2-a]pyrimidine-2-carboxamide]", "values": [{"measurement": "ED50", "setting": "[1]; Rattus norvegicus, iv, rats passively sensitized with IgE-rich antiserum", "result": 0.028, "unit": "mg/kg"}, {"measurement": "rise in plasma histamine caused by antigen challenge", "setting": "[1]; rat, in vivo", "result": "prevented"}, {"measurement": "changes in blood glucose levels", "setting": "blood glucose", "result": "did not exhibit any changes in blood glucose levels"}, {"measurement": "LD50", "setting": "[2]", "result": "> 1000", "unit": "mg/kg"}, {"measurement": "symptoms or lethality", "setting": "mice", "result": "No symptoms or lethality was observed"}, {"measurement": "chromosomal damage in bone marrow, single dose", "setting": "bone marrow", "result": "did not reveal any chromosomal damage"}, {"measurement": "chromosomal breakage in human lymphocytes", "setting": "human lymphocytes", "result": "failed to reveal any significant drug-induced chromosomal breakage"}]}]}
